According to patent US20250169495A1, “COMPOSITIONS AND METHODS FOR CONTROLLING DROSOPHILA FLIES” (Rutgers, The State University of New Jersey, priority 2023, published 2025):

system: Drosophila suzukii adults; experiment: Multiple choice bioassay #2: known and putative repellents; format: in vivo; conditions: 50 μL neat; six traps per arena; 24 h; n=6
Experimental: Within each arena, six gated traps were positioned randomly in a circle (40 cm diameter) at equal distance with each trap 20 cm apart along the circumference. Each gated trap contained ˜5 g of store-bought organic blueberry fruit (n=5), as described elsewhere herein. One of the six traps served as a control (with blueberry fruit only) and the remaining five traps had one of the repellents added to the blueberry fruit. Each volatile (50 μL, neat) was released from a 1 mL polyethylene vial with a piece of cotton placed inside each trap (control traps had vials with cotton but without the volatile). A vial with a cotton ball soaked with deionized water was placed in the middle of the arena. Roughly 150 D. suzukii adults (1:1 male: female ratio) were released inside each arena and the number and sex of flies inside treatment and control traps was recorded after 24 h. The experiment started at 1:00 p.m., was replicated 6 times, and was done in a laboratory under 22±2° C., 55±5% RH, 16:8 (L:D) h. Data from multiple choice assays on the percent of male and female D. suzukii adults responding to each volatile were compared using ANOVA (Minitab version 17; Minitab Inc., State College, PA, USA). The ANOVA model included treatment, sex, and their interaction as fixed factors and block (replicate) as a random factor. A multi-comparison Tukey test (Minitab) was used to determine differences among treatments. Percent data were arcsine square-root transformed prior to ANOVA. Pairwise choice assays were analyzed using G-tests with William's correction. Non-responders were excluded from the statistical analyses.

SMILES | strength of repellency among the five repellents (rank)
CC1CCCC2(C)CCCCC12O (stereo not shown) [geosmin] | the least repellent

system: Drosophila suzukii adults; experiment: Multiple choice bioassay #1: anthracnose-induced volatiles, gated traps with blueberries; format: in vivo; conditions: 50 μL neat volatile added to blueberry fruit in gated trap; 15 traps per arena; 24 h; n=4
Experimental: These bioassays were done in arenas that consisted of a dome cage (60 cm width×60 cm length x 60 cm height; BugDorm-2120 Insect tent; shop.bugdorm.com) (FIG. 1A). Within each arena, 15 gated traps were positioned randomly in a circle (40 cm diameter) at equal distance with each trap 8.4 cm apart along the circumference (FIG. 1A). Each gated trap consisted of 50 mL polystyrene tubes (Fisher Scientific, Nazareth, PA, USA) covered with aluminum foil and sealed with Parafilm®, with a 4 mm-diameter hole in the center of the Parafilm to provide an entrance to flies. All traps had equal quantities (ca. 5 g) of store-bought organic blueberry fruit (n=5); fruit were sterilized with bleach prior to the study (10% bleach for 2 min, rinsed three times in distilled water). One of the 15 traps served as a control (with blueberry fruit only) and the remaining 14 traps had one of the anthracnose volatile compounds added to the blueberry fruit. The 14 compounds tested were: 3-hydroxy-2-butanone, styrene, (E)-2-hexen-1-ol, ethyl 3-hydroxy-3-methylbutanoate, 2-methyl-1-butanol, ethyl propanoate, 2-methyl-1-propanol, diethyl carbonate, 2-methylpropanal, 3-methyl-1-butanol, ethyl 2-methylpropanoate, ethyl butanoate, ethyl (E)-but-2-enoate, and 3-methyl-3 buten-1-ol (see Results). Each volatile (50 μL, neat) was released from a 1 mL polyethylene vial (Globe Scientific Inc., Paramus, NJ, USA) with a piece of cotton placed inside each trap (control traps had vials with cotton but without the volatile). A vial with a cotton ball soaked with deionized water was placed in the middle of the arena to provide flies with water during the experiment. Roughly 300 D. suzukii adults (1:1 male: female ratio) were released inside each arena and the number and sex of flies inside treatment and control traps was recorded after 24 h. The experiment started at 1:00 p.m., was replicated 4 times, and was done in a laboratory under 22+2° C., 55+5% RH, 16:8 (L:D) h.
Data from multiple choice assays on the percent of male and female D. suzukii adults responding to each volatile were compared using ANOVA (Minitab version 17; Minitab Inc., State College, PA, USA). The ANOVA model included treatment, sex, and their interaction as fixed factors and block (replicate) as a random factor. A multi-comparison Tukey test (Minitab) was used to determine differences among treatments. Percent data were arcsine square-root transformed prior to ANOVA. Pairwise choice assays were analyzed using G-tests with William's correction. Non-responders were excluded from the statistical analyses.

SMILES | number of flies captured relative to the control
C=C(C)CCO [3-methyl-3-buten-1-ol] | reduced the number of flies captured relative to the control
CCOC(=O)CC(C)(C)O [ethyl 3-hydroxy-3-methylbutanoate, Ethyl 3-hydroxy-3-methylbutanoate] | captured a similar number of flies as the control
CCC(C)CO (stereo not shown) [2-methyl-1-butanol] | captured a similar number of flies as the control
CC(C)CO [2-methyl-1-propanol] | reduced the number of flies captured relative to the control
CC(=O)C(C)O (stereo not shown) [3-hyrdroxy-2-butanone, 3-Hydroxy-2-butanone] | trapped a higher number of flies than the control
C=Cc1ccccc1 [styrene] | trapped a higher number of flies than the control
CC(C)CCO [3-methyl-1-butanol] | reduced the number of flies captured relative to the control
CC(C)C=O [2-methylpropanal] | reduced the number of flies captured relative to the control
CCOC(=O)CC [ethyl propanoate] | reduced the number of flies captured relative to the control
CCOC(=O)OCC [diethyl carbonate] | reduced the number of flies captured relative to the control
CCOC(=O)C(C)C [ethyl 2-methylpropanoate] | reduced the number of flies captured relative to the control
CCC/C=C/CO [(E)-2-hexen-1-ol] | captured a similar number of flies as the control
